Test results from PubChem BioAssay (NCI).
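Test compounds were applied to cells in 96-well plates for 48 hours at 5 doses. At the TGI there is no net growth.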

Experiments:
Assay in all cases: growth of human tumour cells (NCI), 48 h
SNB-19 CNS = tested on: SNB-19 CNS
SK-MEL-5 melanoma = tested on: SK-MEL-5 melanoma
A549 NSCLC = tested on: A549 NSCLC
CCRF-CEM leukemia = tested on: CCRF-CEM leukemia
RXF 393 renal = tested on: RXF 393 renal
HT29 colon = tested on: HT29 colon
SK-MEL-2 melanoma = tested on: SK-MEL-2 melanoma
EKVX NSCLC = tested on: EKVX NSCLC
SW-620 colon = tested on: SW-620 colon
K-562 leukemia = tested on: K-562 leukemia
SF-295 CNS = tested on: SF-295 CNS
OVCAR-3 ovarian = tested on: OVCAR-3 ovarian
ACHN renal = tested on: ACHN renal
A498 renal = tested on: A498 renal
OVCAR-5 ovarian = tested on: OVCAR-5 ovarian
COLO 205 colon = tested on: COLO 205 colon
HOP-92 NSCLC = tested on: HOP-92 NSCLC
MDA-MB-435 = tested on: MDA-MB-435
MCF7 breast = tested on: MCF7 breast

SMILES | TGI (SNB-19 CNS) [µM] | TGI (SK-MEL-5 melanoma) [µM] | TGI (A549 NSCLC) [µM] | TGI (CCRF-CEM leukemia) [µM] | TGI (RXF 393 renal) [µM] | TGI (HT29 colon) [µM] | TGI (SK-MEL-2 melanoma) [µM] | TGI (EKVX NSCLC) [µM] | TGI (SW-620 colon) [µM] | TGI (K-562 leukemia) [µM] | TGI (SF-295 CNS) [µM] | TGI (OVCAR-3 ovarian) [µM] | TGI (ACHN renal) [µM] | TGI (A498 renal) [µM] | TGI (OVCAR-5 ovarian) [µM] | TGI (COLO 205 colon) [µM] | TGI (HOP-92 NSCLC) [µM] | TGI (MDA-MB-435) [µM] | TGI (MCF7 breast) [µM]
Cc1ccc(CCNC(=S)SCC(NC(=O)CCC(N)C(=O)O)C(=O)NCC(=O)O)cc1 (stereo not drawn) | 4.98 | 3.78 | 13.4 | 2.18 | 2.32 | 7.01 | 1.45 | 18.6 | 3.01 | 2.5 | 8.69 | 5.27 | 4.17 | 6.25 | 6.11 | 6.63 | 2.8 | – | –
COc1ccc2[nH]c3c(C)c4ccnc(NCCCN(C)CCCNC(=O)NCCCN(C)CCCNc5nccc6c(C)c7[nH]c8ccc(OC)cc8c7c(C)c56)c4c(C)c3c2c1 | 2.13 | – | – | 6.01 | 1.26 | 1.19 | 4.07 | 2.56 | 1.3 | > 50 | – | 8.29 | 2.8 | 5 | 4.13 | 0.858 | 3.93 | 1.24 | –
O=C(N/N=C/c1cc(-c2ccccc2Cl)c(-c2ccccc2Cl)o1)c1ccncc1 | > 100 | – | > 100 | – | > 100 | > 100 | > 100 | > 100 | > 100 | – | > 100 | > 100 | > 100 | > 100 | > 100 | > 100 | > 100 | – | –
CC(=O)/C=C\C(=O)NNS(=O)(=O)c1ccc(C)cc1 | > 100 | > 100 | > 100 | > 100 | > 100 | > 100 | > 100 | > 100 | > 100 | > 100 | > 100 | > 100 | > 100 | > 100 | > 100 | > 100 | > 100 | – | –
CCOc1ccccc1Nc1nc(C)c(C(=O)CC(=O)C(=O)Nc2ccccc2)s1 | > 100 | > 100 | > 100 | > 100 | > 100 | > 100 | > 100 | > 100 | > 100 | > 100 | > 100 | 63.3 | > 100 | > 100 | > 100 | > 100 | > 100 | – | –
CN(C)/C=C/c1ccnc2c1C(=O)c1ccccc1C2=O | 25.6 | 4.22 | > 56.7 | > 56 | > 100 | 37.9 | 18.3 | 44.3 | 21.5 | > 47.1 | 14.3 | > 100 | > 50.7 | > 85.6 | 32.5 | > 55.1 | > 100 | – | > 44.7
O=c1[nH]c2cccccc-2c1-c1nc2ccccc2[nH]1 | 88 | 47.6 | > 100 | > 100 | 45.6 | > 100 | 77.1 | > 100 | > 100 | > 100 | > 100 | – | 51.6 | – | > 100 | > 100 | 93.6 | – | –
